Patent US5302589A, “Heterocyclic inhibitors of 5-α-testosterone reductase” (Glaxo, Inc., priority 1992, dated 1994)

Each compound was assayed against T1, 5-α-reductase (Homo sapiens, UniProt P31213) (assay: Steroid 5-α-reductase in vitro assay (prostatic microsomes, conversion of [3H]-testosterone to DHT)). Details: microsomes from human (BPH) prostate tissue; 100 nM [1,2,6,7-^3 H]-testosterone, 1 mM NADPH, 60 minutes at 37° C.; HPLC with radiochemical detection; read-out: 5-α-REDUCTASE in vitro INHIBITORY ACTIVITY IC50 Human.
T1 construct: microsomes derived from human prostate tissue; from tissue; host or cells: human prostate tissue (BPH patients), microsomes
T1 sequence (P31213 1-254): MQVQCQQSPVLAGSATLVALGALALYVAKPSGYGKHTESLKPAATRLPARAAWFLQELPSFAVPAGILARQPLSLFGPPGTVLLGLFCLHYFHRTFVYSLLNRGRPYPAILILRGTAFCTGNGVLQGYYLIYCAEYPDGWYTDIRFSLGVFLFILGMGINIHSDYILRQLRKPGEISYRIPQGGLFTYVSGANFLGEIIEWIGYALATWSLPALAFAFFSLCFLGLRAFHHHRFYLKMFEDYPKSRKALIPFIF
Type: biochemical
Experimental: Enzyme activity may be determined using microsomes derived from prostate tissue of benign prostatic hypertrophy (BPH) patients or from rat prostate tissue. Prostatic microsomes were prepared by homogenization of the tissue, followed by differential centrifugation of the homogenate. Microsome extracts were incubated with 100 nM [1,2,6,7-^3 H]-testosterone, 1 mM NADPH and varying amounts of the a compounds of Formula (I), i.e., a test compound, for 60 minutes at 37° C. Corresponding incubations were carried out with no test compound as a control study. The percentage of conversion of testosterone to DHT in the presence of a test compounds compared to the corresponding conversion in the control study was estimated using high pressure liquid chromatography (HPLC) with radiochemical detection. The results of this assay as IC50 values for microsomes derived from human prostate tissue are show in Table 1.
Compound `CCN(CC)C(=O)[C@H]1CC[C@H]2[C@@H]3Cn4nnc5c4[C@](C)(CCC5=O)[C@H]3CC[C@]12C` [Compound 1, 17β-N,N-Diethylcarbamoyl-6-azaandrost-4,6-diazo-4-en-3-one] has an IC50 of 0.1 to 1 µM. `CCN(CC)C(=O)[C@H]1CC[C@H]2[C@@H]3Cn4ccc5c4[C@](C)(CCC5=O)[C@H]3CC[C@]12C` [Compound 2, 17β-N,N-Diethylcarbamoyl-6-azaandrost-4,6-etheno-4-en-3-one] was tested, and the IC50 was 0.01 to 0.1 µM. `CC(C)(C)NC(=O)[C@H]1CC[C@H]2[C@@H]3Cn4ccc5c4[C@](C)(CCC5=O)[C@H]3CC[C@]12C` [Compound 3, 17β-N-t-Butylcarbamoyl-6-azaandrost-4,6-etheno-4-en-3-one] showed an IC50 of 0.01 to 0.1 µM. For `CC(C)(C)NC(=O)[C@H]1CC[C@H]2[C@@H]3CN4CCCCC5=C4[C@](C)(CCC5=O)[C@H]3CC[C@]12C` [Compound 4, 17β-N-t-Butylcarbamoyl-6-azaandrost-4,6-butano-4-en-3-one], the IC50 was 0.01 to 0.1 µM.
